The NIST ThermoML archive (doi:10.1016/j.jct.2005.12.012)
Where “and” joins values, the source holds several entries; their conditions need not be identical. Identical values can stand only once. ± gives the expanded uncertainty stated by the source.

Settings: Crystal

SMILES: [Cl][Fe]([Cl])[Cl] [ferric chloride]
- vapor or sublimation pressure (383.9 K): 2.16e-05 ± 4.4e-06 kPa
- vapor or sublimation pressure (386.3 K): 1.586e-05 ± 3.3e-06 kPa and 2.159e-05 ± 4.4e-06 kPa
- vapor or sublimation pressure (389.3 K): 4.466e-05 ± 1e-05 kPa
- vapor or sublimation pressure (389.6 K): 3.81e-05 ± 7.8e-06 kPa
- vapor or sublimation pressure (389.7 K): 3.88e-05 ± 8e-06 kPa
- vapor or sublimation pressure (390.4 K): 3.533e-05 ± 7.1e-06 kPa
- vapor or sublimation pressure (392 K): 3.693e-05 ± 7.7e-06 kPa
- vapor or sublimation pressure (392.7 K): 6.293e-05 ± 1.4e-05 kPa
- vapor or sublimation pressure (393.8 K): 8.506e-05 ± 1.7e-05 kPa
- vapor or sublimation pressure (394.2 K): 6.506e-05 ± 1.3e-05 kPa
- vapor or sublimation pressure (394.8 K): 9.106e-05 ± 1.8e-05 kPa
- vapor or sublimation pressure (394.9 K): 4.68e-05 ± 9.4e-06 kPa and 7.493e-05 ± 1.5e-05 kPa
- vapor or sublimation pressure (395.1 K): 5.706e-05 ± 1.3e-05 kPa
- vapor or sublimation pressure (395.4 K): 7.039e-05 ± 1.7e-05 kPa
- vapor or sublimation pressure (396.6 K): 7.053e-05 ± 1.4e-05 kPa
- vapor or sublimation pressure (398 K): 6.426e-05 ± 1.3e-05 kPa
- vapor or sublimation pressure (398.6 K): 0.0001123 ± 2.8e-05 kPa
- vapor or sublimation pressure (398.9 K): 0.0001423 ± 3.5e-05 kPa
- vapor or sublimation pressure (399 K): 0.0001348 ± 2.9e-05 kPa and 0.0001191 ± 2.4e-05 kPa
- vapor or sublimation pressure (401.2 K): 0.0001035 ± 2.1e-05 kPa
- vapor or sublimation pressure (403 K): 0.0001712 ± 3.5e-05 kPa and 0.0001621 ± 3.5e-05 kPa and 0.0001703 ± 3.5e-05 kPa
- vapor or sublimation pressure (403.2 K): 0.0002573 ± 5.2e-05 kPa
- vapor or sublimation pressure (403.3 K): 0.0001812 ± 3.8e-05 kPa
- vapor or sublimation pressure (404.5 K): 0.0002585 ± 5.2e-05 kPa
- vapor or sublimation pressure (404.6 K): 0.000249 ± 5e-05 kPa
- vapor or sublimation pressure (407.7 K): 0.0003298 ± 7e-05 kPa
- vapor or sublimation pressure (408.6 K): 0.000386 ± 7.7e-05 kPa and 0.0003425 ± 6.8e-05 kPa
- vapor or sublimation pressure (409.1 K): 0.000328 ± 6.9e-05 kPa
- vapor or sublimation pressure (409.3 K): 0.0003058 ± 6.3e-05 kPa
- vapor or sublimation pressure (409.8 K): 0.0004945 ± 0.00012 kPa
- vapor or sublimation pressure (409.9 K): 0.0003822 ± 8.1e-05 kPa
- vapor or sublimation pressure (412.7 K): 0.0003274 ± 6.6e-05 kPa
- vapor or sublimation pressure (413.5 K): 0.0004797 ± 0.00011 kPa
- vapor or sublimation pressure (413.9 K): 0.0005921 ± 0.00013 kPa and 0.0007087 ± 0.00015 kPa
- vapor or sublimation pressure (414.1 K): 0.0005326 ± 0.00011 kPa
- vapor or sublimation pressure (414.6 K): 0.0007097 ± 0.00014 kPa
- vapor or sublimation pressure (416.4 K): 0.0004961 ± 0.0001 kPa and 0.0004838 ± 9.9e-05 kPa
- vapor or sublimation pressure (418.4 K): 0.001063 ± 0.00043 kPa
- vapor or sublimation pressure (419.3 K): 0.0007021 ± 0.00015 kPa and 0.001331 ± 0.00057 kPa
- vapor or sublimation pressure (419.4 K): 0.0008229 ± 0.00017 kPa
- vapor or sublimation pressure (419.8 K): 0.0006339 ± 0.00016 kPa
- vapor or sublimation pressure (419.9 K): 0.0009366 ± 0.00019 kPa
- vapor or sublimation pressure (421.9 K): 0.0009899 ± 0.0002 kPa
- vapor or sublimation pressure (422.2 K): 0.001008 ± 0.0004 kPa
- vapor or sublimation pressure (423.6 K): 0.001647 ± 0.00073 kPa
- vapor or sublimation pressure (424 K): 0.00111 ± 0.00045 kPa
- vapor or sublimation pressure (424.2 K): 0.001053 ± 0.00043 kPa
- vapor or sublimation pressure (424.8 K): 0.001549 ± 0.00068 kPa
- vapor or sublimation pressure (424.9 K): 0.001033 ± 0.00042 kPa
- vapor or sublimation pressure (425.6 K): 0.001455 ± 0.00063 kPa
- vapor or sublimation pressure (426.4 K): 0.001488 ± 0.00065 kPa
- vapor or sublimation pressure (426.8 K): 0.001202 ± 0.00052 kPa
- vapor or sublimation pressure (428.8 K): 0.001767 ± 0.00091 kPa and 0.001985 ± 0.00097 kPa
- vapor or sublimation pressure (429.2 K): 0.002648 ± 0.0014 kPa
- vapor or sublimation pressure (430.9 K): 0.002751 ± 0.0013 kPa
- vapor or sublimation pressure (431.6 K): 0.001895 ± 0.00087 kPa
- vapor or sublimation pressure (434 K): 0.003812 ± 0.002 kPa
- vapor or sublimation pressure (434.4 K): 0.003132 ± 0.0016 kPa
- vapor or sublimation pressure (434.5 K): 0.004177 ± 0.0022 kPa
- vapor or sublimation pressure (439.7 K): 0.006419 ± 0.0036 kPa
- vapor or sublimation pressure (445.2 K): 0.008538 ± 0.005 kPa
